This note sets out measurements from patent publication US10265321B2, “Uses of salt-inducible kinase (SIK) inhibitors” (Dana-Farber Cancer Institute, Inc., priority 2014, dated 2019).

Where two headings read alike, the source gives them in different places.

Assay [1] deals with IL-10 production by zymosan-stimulated BMDCs. In words: IL-10 up-regulation in zymosan-stimulated BMDCs (AlphaLISA/ELISA). In kind it is cell-based, mouse. The method, then:
(§1) Bone marrow-derived DCs were differentiated from C57BL/6 bone marrow in the presence of GM-CSF-conditioned media. CD11c^+ CX3CR1^hi myeloid cells and CD11c^+ CX3CR1^− DCs were isolated from the small intestine lamina propria of Cx3cr1^eGFP/+ mice (12). Detection of cell-surface Thy1.1 expression on BMDCs from 10BiT reporter mice was conducted as described previously (24). Cell viability was estimated by change in total cellular ATP levels using CellTiterGlo assays (Promega). Preparation of recombinant SIK proteins and IC50 measurements were conducted as described previously (21). Total RNA was extracted using a NucleoSpin 96 RNA isolation kit (Macherey-Nagel) followed by cDNA synthesis and multiplex RT-PCR using a microfluidic dynamic array (Fluidigm). The concentrations of TNF-α, IL-6, IL-10, IL-12p40, IL-1β and RANTES in culture supernatants were detected using a FlexSet Cytometric bead array (BD Biosciences). Alternatively, IL-10 secretion was quantified using ELISA (BD Biosciences) or AlphaLISA (PerkinElmer) assays. NO production was estimated based on nitrate content in culture medium using the Greiss reagent.
C57BL/6 mice were euthanized and bone marrow harvested from femurs and tibias as described previously (Graham D B, et al. (2007) An ITAM-signaling pathway controls cross-presentation of particulate but not soluble antigens in dendritic cells. The Journal of experimental medicine 204(12):2889-2897). BMDCs were differentiated DMEM supplemented with 2 mM GlutaMAX, 10% (vol/vol) FBS, penicillin, streptomycin and 2% mouse GM-CSF conditioned media derived from TOPO cells. Cultures were differentiated for 7 days and routinely analyzed for >90% CD11c (APC anti-CD11c clone HL3; BD Biosciences) positivity by flow cytometry before use in experiments. Lentiviral transduction of bone marrow cultures was conducted by addition of 293T culture supernatants containing lentiviral particles encoding the CREB dependent luciferase reporter construct or CRTC3 targeting or control shRNAs one day post-isolation. Stable integration of lentiviral shRNA constructs was selected by addition of puromycin (3 μg/mL) on day 4 post-transduction. After 2 days, stably transduced BMDCs were released from selection and used in subsequent assays. Unless otherwise indicated, cells were treated for 2 days with PGE2 (5 μM) or HG-9-91-01 (0.5 μM) or an equivalent concentration of DMSO (≤0.5%) and then stimulated for 18 hr with LPS (100 ng/mL), R848 (10 μg/mL) or zymosan (4 μg/mL).
BMDCs were seeded into black 384-well plates (Corning) at 20,000 cells/well in 40 μL complete DMEM using a Multidrop COMBI (Thermal Scientific) followed by incubation at 37° C. for 2 hr to allow for plate adherence. SIK inhibitors (100 nL/well) were pin-transferred from concentrated DMSO stocks using CyBi-Well Vario (CyBio) into duplicate plates. For each treatment plate, 32 out of 384 wells were pinned with DMSO as negative control and 32 out of 384 wells were pinned with PGE2 (5 μM final concentration). Two days after SIK inhibitor treatment, BMDCs were stimulated with zymosan (4 μg/mL final concentration) dispersed in culture medium (20 μL/well) using a Multidrop COMBI. After 18 hr, 5 μL of resulting supernatant was transferred from the culture plate to white 384-well AlphaLISA plates (Perkin Elmer) using a CyBi-Well Vario. IL-10 abundance in the supernatants was determined using an AlphaLISA assay (PerkinElmer) according to the manufacture's protocol and signal intensity measured using an EnVision multimode plate reader. SIK inhibitor activity was expressed as a % of the differences between the mean abundance of IL-10 in PGE2 versus DMSO wells on a per plate basis. Cell viability assays were conducted on the same tissue culture plates as the IL-10 assay. First media was removed and replaced by solution of 50% (vol/vol) CellTiter-Glo (Promega) in PBS. […]

The subject of assay [2] is BMDCs. Description: Cell viability of BMDCs (CellTiter-Glo, cellular ATP). In kind it is cell-based, mouse. Particulars: Mus musculus, BMDC; zymosan-stimulated BMDCs; read-out: Viability loss EC50. As to the method:
as §1
BMDCs were seeded into black 384-well plates (Corning) at 20,000 cells/well in 40 μL complete DMEM using a Multidrop COMBI (Thermal Scientific) followed by incubation at 37° C. for 2 hr to allow for plate adherence. SIK inhibitors (100 nL/well) were pin-transferred from concentrated DMSO stocks using CyBi-Well Vario (CyBio) into duplicate plates. For each treatment plate, 32 out of 384 wells were pinned with DMSO as negative control and 32 out of 384 wells were pinned with PGE2 (5 μM final concentration). Two days after SIK inhibitor treatment, BMDCs were stimulated with zymosan (4 μg/mL final concentration) dispersed in culture medium (20 μL/well) using a Multidrop COMBI. After 18 hr, 5 μL of resulting supernatant was transferred from the culture plate to white 384-well AlphaLISA plates (Perkin Elmer) using a CyBi-Well Vario. IL-10 abundance in the supernatants was determined using an AlphaLISA assay (PerkinElmer) according to the manufacture's protocol and signal intensity measured using an EnVision multimode plate reader. SIK inhibitor activity was expressed as a % of the differences between the mean abundance of IL-10 in PGE2 versus DMSO wells on a per plate basis. Cell viability assays were conducted on the same tissue culture plates as the IL-10 assay. First media was removed and replaced by solution of 50% (vol/vol) CellTiter-Glo (Promega) in PBS. Luminescence was read using an Envision multimode plate reader, and signal intensity calculated relative to DMSO control wells on a per plate basis.

Where [3] appears, read: Mus musculus, BMDC, zymosan-stimulated BMDCs, read-out: IL-10 induction EC50.

Regarding `COc1ccc(N(C(=O)Nc2c(C)cccc2C)c2cc(Nc3ccc(N4CCN(C)CC4)cc3)ncn2)c(OC)c1` [HG-9-91-01], in assay [1] (BMDCs), the “concentrations that suppressed/reduced zymosan-induced IL-10 production” value was “greater than 1 μM”. For the same molecule, in assay [1] (BMDCs pre-treated 2 days, zymosan 18 hr, ELISA, read-out: EC50 of potentiation of zymosan-induced IL-10 production), the EC50 was roughly 200 nM.

With `CCN1CCN(c2ccc(Nc3cc(-n4ccnc4Nc4c(C)cccc4C)ncn3)cc2)CC1` [II-1, 6-(2-((2,6-dimethylphenyl)amino)-1H-imidazol-1-yl)-N-(4-(4-ethylpiperazin-1-yl)phenyl)pyrimidin-4-amine], the EC50 is 1460 nM in assay [1] (setting [3]) and 0.0195 µM in assay [2].

For the molecule `Cc1cccc(C)c1NC(=O)N1C/C=C\COc2cccc(c2)Nc2cc1ncn2` [I-1], the EC50 in assay [1] (setting [3]) is 5620 nM; in assay [2], 10 µM.
